{"source": "ChEMBL document CHEMBL1142208", "about": "“Protection of mice from lethal Escherichia coli infection by chimeric human bactericidal/permeability-increasing protein and immunoglobulin G1 Fc gene delivery” (2007)", "key": {"Mus musculus [1]": {"test_system": "Mus musculus", "experiment": "Mortality rate of BALB/c mouse infected with Escherichia coli O111:B4 at 25 ug, im within 48 hrs", "type": "functional"}, "Mus musculus [2]": {"test_system": "Mus musculus", "experiment": "Survival rate of BALB/c mouse infected with Escherichia coli O111:B4 at 25 ug, im within 48 hrs", "type": "functional"}}, "data": [{"compound": "CO/N=C(\\C(=O)N[C@@H]1C(=O)N2C(C(=O)O)=C(COC(N)=O)CS[C@H]12)c1ccco1", "note": "[CEFUROXIME]", "values": [{"measurement": "Survival", "setting": "Mus musculus [1]", "result": 91.4, "unit": "%"}, {"measurement": "Survival", "setting": "Mus musculus [2]", "result": 5, "unit": "%"}]}]}
